Laboratory results reported in publication PMC4976923, “Potent Allosteric Dengue Virus NS5 Polymerase Inhibitors: Mechanism of Action and Resistance Profiling” (PLoS Pathogens, 2016).

How the values were obtained:
[1] = target: T1, DENV3 FL NS5 (Dengue virus type 3, UniProt Q6YMS4); experiment: DENV3 FL NS5 de novo initiation FAPA assay; format: biochemical; settings: one experiment; read-out: DENV FL NS5 de novo initiation FAPA, IC50, DENV3
T1 construct: 100 nM DENV FL NS5 protein was added; made in house
Protocol: DENV1-4 FL NS5 dnI assays were performed as described previously. Briefly, compounds from 0–20 or -100 μM concentrations are two-fold serially diluted into 384-well black opaque plates (Corning Costar), after which 100 nM DENV FL NS5 protein was added and the plates incubated at RT for 20 min. RNA and ATTO-CTP, ATP, GTP and UTP were then added and the plates incubated for another 120 min. Reactions were stopped with buffer containing 25 nM CIP, re- incubated at RT for 60 min and read on a Tecan Safire II microplate reader. For order-of-addition experiments, DENV4 FL NS5 was incubated for one hour at RT with RNA, ATP, and GTP or RNA, ATP, GTP and ATTO-CTP, followed by exposure to serially diluted compounds for 20 min at RT. The missing components (ATTO-CTP and UTP or UTP alone) were added and the reactions continued for 120 min after which STOP buffer was added as before. All datapoints were performed in duplicate wells. Each compound was tested at least twice.
2 Co mpound testing with DENV dn I FAPA assays. Final dn I assa y reaction mixtures
3 contained 100 nM DENV 5 ´UTR-L-3´UTR IVT RNA, 20 µ M ATP, 20 µM GTP, 20 µM
4 UTP, 5 µM ATTO -CTP, and 100 nM of DENV FL NS5 protein in 15 µl in assa y buffer
5 comprising 50 mM Tris/ HCl, pH 7.5, 10 mM KCl, 1 mM MgCl2, 0.3 mM MnCl2 (DENV2
6 and 4) or 1 mM MnCl 2 (DENV1 and 3), 0.001% Triton- X-100 and 10 µ M cystein e [ 1] . To
7 perform dose-respons e inhibition measurements, compounds from 0- 20 or - 100 µM
8 concentr ations are two -fold seriall y diluted into 384-well black opaqu e plat es (Corning
9 Costar), after which 100 nM DENV FL NS5 protein was added into resp ect ive wells. The
10 plates wer e sealed, b riefl y shak en and centrif uged at 1500 rpm for 30 sec and incubated at RT
11 for 15 min. Thereafter,RNA and ATTO -CTP, ATP, GTP and UTP were added to the wells to
12 start the reactions. The pl ates wer e re-seal ed, shaken and centrifuged as before, followed b y
13 incubation RT for 120 min. Reactions were stopped by addition of 10 µl of 2.5X STOP
14 buffer (200 mM NaCl, 25 mM MgCl2, 1.5M DEA, pH 10; Promega) with 25 nM calf
15 intestinal phosphatase (CIP), re- incubation at RT for 60 min and read on a Tecan Safire II
16 microplate reader. For o r der-of-addition experiments, DENV4 FL NS5 was incubated for one
17 hour at RT with RNA, ATP, and GTP or RNA, ATP, GTP and ATTO-CTP, followed by
18 exposure to seriall y dilut ed compounds for 20 mi n at RT. The missing components (ATTO-
19 CTP and UTP or UTP alone) were added and the reactions continued for 120 min after which
20 STOP buffer was added as before. All datapoints were performed in duplicate wells. Each
21 compound was tested at l east twice.
23 Compound testing in DENV1-4 infected cells by high content imaging. Approximatel y 7
24 × 10^3 A549 cells per well were s eeded into 384-well plates in Ham’s F-12K medium

[2] = target: T2, DENV2 FL NS5 L511V/E802D (Dengue virus type 2, UniProt P14340, E3293D/L3003V); format: binding; settings: 50 µM compound; for Protein melting temperature, Tm, DENV2 FL NS5 L511V/E802D: DMSO 35
T2 construct: Recombinant DENV2 (A, C) and DENV4 (B, D) FL NS5 proteins bearing single or double amino acid changes; made in house

[3] = target: T3, DENV4 FL NS5 Q802N (Dengue virus type 4, UniProt P09866, Q3290N); format: binding; settings: 50 µM compound; for Protein melting temperature, Tm, DENV4 FL NS5 Q802N: DMSO 37
T3 construct: made in house

[4] = target: T4, DENV4 FL NS5 L512V/Q802N (Dengue virus type 4, UniProt P09866, L2999V/Q3290N); format: binding; settings: 50 µM compound; for Protein melting temperature, Tm, DENV4 FL NS5 L512V/Q802N: DMSO 36
T4 construct: made in house

[5] = test system: DENV2-NGC Ren-LUC Replicon in BHK21; experiment: Stable BHK21 DENV2-NGC renilla luciferase replicon assay; format: cell-based; settings: Dengue virus, DENV2, BHK-21; 48 hr
[6] = in vitro; format: cell-based; settings: human; 4–5 days
[7] = test system: DENV2-NGC replicon L512V; format: cell-based; settings: electroporated BHK-21; 2 days
[8] = test system: DENV2-NGC replicon E802D; format: cell-based; settings: electroporated BHK-21; 2 days
[9] = test system: DENV2-NGC replicon L512V/E802D; format: cell-based; settings: electroporated BHK-21; 2 days
[10] = test system: DENV2-NGC virus L512V; format: cell-based; settings: A549, MOI = 0.2; 48 hr; plaque assay
[11] = test system: DENV2-NGC virus L512V/E802D; format: cell-based; settings: A549, MOI = 0.2; 48 hr; plaque assay
[12] = test system: DENV1, strain MY97-10245; settings: A549; 48 hr; read-out: DENV1 HCI, EC50; cited from earlier work
[13] = test system: clinical DENV2 isolate MY97-10340; settings: A549, 48 hr, read-out: DENV2 HCI, EC50 (converted); cited from earlier work
[14] = test system: DENV2-NGC replicon Wild Type; experiment: Transient WT DENV2-NGC replicon in BHK-21 cells; settings: Dengue virus, DENV2, BHK-21, 48 h, read-out: EC50, DENV2-NGC Replicon, Wild Type

Structure (SMILES)	IC50 [1] [µM]	Tm change compared to DMSO control, DENV2 FL NS5 L511V/E802D [2] [°C]	Protein melting temperature, Tm, DENV2 FL NS5 L511V/E802D [2] [°C]	Tm change compared to DMSO control, DENV4 FL NS5 Q802N [3] [°C]	Protein melting temperature, Tm, DENV4 FL NS5 Q802N [3] [°C]	Tm change compared to DMSO control, DENV4 FL NS5 L512V/Q802N [4] [°C]	Protein melting temperature, Tm, DENV4 FL NS5 L512V/Q802N [4] [°C]	EC50 [5] [µM]	CC50 [6] [µM]	EC50 [7] [µM]	EC50 [8] [µM]	EC50 [9] [µM]	EC50 [10] [µM]	EC50 [11] [µM]	EC50 [12] [µM]	EC50 [13] [µM]	EC50 [14] [µM]
COc1cc(OC)c(-c2ccc(C#CCO)s2)cc1C(=O)NS(=O)(=O)c1cccc2cccnc12 [Compound 29]	0.016	0.5	35.5	1.5	38.5	-0.5	35.5	4.6	> 50	32.3	21.4	38.8	6	7.01	6.3 ± 0.9	14.1	6.7
COc1cccc(S(=O)(=O)NC(=O)c2cc(-c3ccc(C#CCO)s3)c(OC)cc2OC)c1 [Compound 27]	–	0	35	0.5	37.5	-1	35	3	> 50	25.9	12.8	28.4	2.2	2.32	1.8 ± 0.1	2.3	7.83
COc1cccc(S(=O)(=O)NC(=O)c2cc(-c3ccc(C#CCO)s3)c(OC)cc2C)c1 [Compound 26i]	0.054	–	–	–	–	–	–	–	–	–	–	–	–	–	–	–	–
